The text below walks through data of patent publication US20230203059A1, “MACROCYCLIC JAK INHIBITOR AND USES THEREOF” (Biopolar Hongye (Guangdong) Pharmaceutical Co. Ltd., priority 2020, published 2023).

Molecules are shown by their SMILES.

Format in all cases: biochemical
In one experiment the target is T1, JAK3 (Homo sapiens, UniProt P52333).
T1 sequence (P52333 1-1124): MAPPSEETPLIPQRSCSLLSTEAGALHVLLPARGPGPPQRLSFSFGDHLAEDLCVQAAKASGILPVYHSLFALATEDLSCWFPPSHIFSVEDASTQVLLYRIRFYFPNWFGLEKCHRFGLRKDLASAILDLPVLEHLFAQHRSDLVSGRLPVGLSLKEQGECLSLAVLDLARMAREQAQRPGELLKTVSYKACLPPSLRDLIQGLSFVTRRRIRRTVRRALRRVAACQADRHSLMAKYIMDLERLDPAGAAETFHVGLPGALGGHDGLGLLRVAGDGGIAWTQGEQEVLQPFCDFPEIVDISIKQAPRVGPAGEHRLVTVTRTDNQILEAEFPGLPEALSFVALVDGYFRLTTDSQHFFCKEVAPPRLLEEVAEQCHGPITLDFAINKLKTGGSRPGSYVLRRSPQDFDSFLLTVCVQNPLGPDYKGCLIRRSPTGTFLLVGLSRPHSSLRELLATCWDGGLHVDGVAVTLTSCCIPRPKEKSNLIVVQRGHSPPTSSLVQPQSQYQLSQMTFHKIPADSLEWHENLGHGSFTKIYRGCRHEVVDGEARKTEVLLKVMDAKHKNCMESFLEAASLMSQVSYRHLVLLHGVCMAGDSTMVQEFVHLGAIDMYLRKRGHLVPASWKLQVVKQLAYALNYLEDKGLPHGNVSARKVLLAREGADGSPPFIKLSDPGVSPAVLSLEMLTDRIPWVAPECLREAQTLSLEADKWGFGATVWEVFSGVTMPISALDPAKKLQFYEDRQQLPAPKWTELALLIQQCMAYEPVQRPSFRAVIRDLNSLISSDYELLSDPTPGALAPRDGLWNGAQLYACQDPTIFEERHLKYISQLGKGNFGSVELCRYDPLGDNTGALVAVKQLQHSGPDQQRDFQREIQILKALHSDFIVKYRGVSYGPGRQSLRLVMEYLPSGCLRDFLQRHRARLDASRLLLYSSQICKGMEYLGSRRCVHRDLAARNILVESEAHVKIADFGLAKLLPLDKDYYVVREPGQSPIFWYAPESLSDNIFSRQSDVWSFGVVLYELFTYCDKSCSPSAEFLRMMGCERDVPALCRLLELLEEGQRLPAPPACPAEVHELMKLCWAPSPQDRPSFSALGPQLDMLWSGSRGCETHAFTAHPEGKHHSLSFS
Nature of the experiment: JAK kinase activity, homogeneous time-resolved fluorescence (JAK3 reaction system). The conditions noted are these: ATP 2 μM, JAK3 protein 0.04 ng/μL; read-out: JAK 3 activity.

The next experiment addresses JAK1 (Homo sapiens, UniProt P23458). Nature of the experiment: JAK kinase activity, homogeneous time-resolved fluorescence (JAK1 reaction system). Particulars: ATP 2 μM, JAK1 protein 0.2 ng/μL; read-out: JAK 1 activity. In short, it runs like this:
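Kinase activity read as the 665 nm/615 nm time-resolved fluorescence ratio (320 nm excitation) after EDTA-containing antibody and XL-615 addition. Reaction ran 1 h at pH 7.0 (Hepes, MgCl2, DTT) with 0.2 ng/μL JAK1 and ATP at 2 μM. IC50 derived by Hill-slope fit.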

The next experiment addresses TYK2 (Homo sapiens, UniProt P29597). In words: JAK kinase activity, homogeneous time-resolved fluorescence (TYK2 reaction system). Particulars: ATP 2 μM, TYK2 protein 0.2 ng/μL; read-out: TYK 2 activity. In short, it runs like this: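 Activity read as the 665 nm/615 nm ratio after adding EDTA-containing detection mix with anti-phospho-substrate antibody and XL-615. Beforehand, 0.2 ng/μL TYK2, 2 μM ATP, substrate and compound reacted 1 h in pH 7.0 Hepes buffer with MgCl2 and DTT. IC50 fitted with Hill-slope equation.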

The next experiment deals with JAK2 (Homo sapiens, UniProt O60674). In words: JAK kinase activity, homogeneous time-resolved fluorescence (JAK2 reaction system). The conditions noted are these: ATP 2 μM, JAK2 protein 0.01 ng/μL. In short, it runs like this:
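IC50 derived by Hill-equation fit of the 665/615 nm time-resolved fluorescence ratio after EDTA-containing detection mix with anti-phosphosubstrate antibody. Preceding 1 h reaction contained 2 μM ATP, 0.01 ng/μL JAK2, substrate, 50 mM Hepes pH 7.0, 5 mM MgCl2, 1 mM DTT.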

Chain of JAK1 (P23458 whole entry): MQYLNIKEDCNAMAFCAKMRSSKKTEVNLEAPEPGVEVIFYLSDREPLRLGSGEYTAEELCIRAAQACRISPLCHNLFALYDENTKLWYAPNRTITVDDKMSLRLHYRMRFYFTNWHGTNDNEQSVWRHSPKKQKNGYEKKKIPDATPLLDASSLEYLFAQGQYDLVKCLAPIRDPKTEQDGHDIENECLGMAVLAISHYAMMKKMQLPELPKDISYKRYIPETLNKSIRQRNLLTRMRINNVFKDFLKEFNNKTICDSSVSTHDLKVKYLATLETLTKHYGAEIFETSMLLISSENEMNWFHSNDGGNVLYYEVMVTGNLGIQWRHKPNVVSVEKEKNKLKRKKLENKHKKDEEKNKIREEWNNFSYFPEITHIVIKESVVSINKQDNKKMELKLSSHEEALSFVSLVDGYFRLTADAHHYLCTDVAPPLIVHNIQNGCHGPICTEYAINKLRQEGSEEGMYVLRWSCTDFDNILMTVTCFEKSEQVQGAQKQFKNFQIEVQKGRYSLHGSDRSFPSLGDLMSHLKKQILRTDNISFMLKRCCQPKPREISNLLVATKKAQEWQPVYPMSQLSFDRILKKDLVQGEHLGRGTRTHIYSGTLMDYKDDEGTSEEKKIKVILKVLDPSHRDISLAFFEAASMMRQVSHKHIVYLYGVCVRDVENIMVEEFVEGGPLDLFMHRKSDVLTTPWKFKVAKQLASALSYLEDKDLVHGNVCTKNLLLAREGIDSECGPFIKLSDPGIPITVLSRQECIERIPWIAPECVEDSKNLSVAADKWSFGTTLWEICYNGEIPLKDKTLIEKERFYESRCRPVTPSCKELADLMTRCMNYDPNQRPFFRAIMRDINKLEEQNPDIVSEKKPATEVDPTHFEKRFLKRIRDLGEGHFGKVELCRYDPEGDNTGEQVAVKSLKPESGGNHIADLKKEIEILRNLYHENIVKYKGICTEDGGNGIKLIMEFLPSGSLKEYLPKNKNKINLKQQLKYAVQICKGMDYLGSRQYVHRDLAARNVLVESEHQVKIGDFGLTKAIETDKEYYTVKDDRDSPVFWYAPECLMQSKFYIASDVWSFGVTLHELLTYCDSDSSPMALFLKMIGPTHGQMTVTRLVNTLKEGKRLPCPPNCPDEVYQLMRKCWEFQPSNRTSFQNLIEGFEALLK
Chain of JAK2 (O60674 whole entry): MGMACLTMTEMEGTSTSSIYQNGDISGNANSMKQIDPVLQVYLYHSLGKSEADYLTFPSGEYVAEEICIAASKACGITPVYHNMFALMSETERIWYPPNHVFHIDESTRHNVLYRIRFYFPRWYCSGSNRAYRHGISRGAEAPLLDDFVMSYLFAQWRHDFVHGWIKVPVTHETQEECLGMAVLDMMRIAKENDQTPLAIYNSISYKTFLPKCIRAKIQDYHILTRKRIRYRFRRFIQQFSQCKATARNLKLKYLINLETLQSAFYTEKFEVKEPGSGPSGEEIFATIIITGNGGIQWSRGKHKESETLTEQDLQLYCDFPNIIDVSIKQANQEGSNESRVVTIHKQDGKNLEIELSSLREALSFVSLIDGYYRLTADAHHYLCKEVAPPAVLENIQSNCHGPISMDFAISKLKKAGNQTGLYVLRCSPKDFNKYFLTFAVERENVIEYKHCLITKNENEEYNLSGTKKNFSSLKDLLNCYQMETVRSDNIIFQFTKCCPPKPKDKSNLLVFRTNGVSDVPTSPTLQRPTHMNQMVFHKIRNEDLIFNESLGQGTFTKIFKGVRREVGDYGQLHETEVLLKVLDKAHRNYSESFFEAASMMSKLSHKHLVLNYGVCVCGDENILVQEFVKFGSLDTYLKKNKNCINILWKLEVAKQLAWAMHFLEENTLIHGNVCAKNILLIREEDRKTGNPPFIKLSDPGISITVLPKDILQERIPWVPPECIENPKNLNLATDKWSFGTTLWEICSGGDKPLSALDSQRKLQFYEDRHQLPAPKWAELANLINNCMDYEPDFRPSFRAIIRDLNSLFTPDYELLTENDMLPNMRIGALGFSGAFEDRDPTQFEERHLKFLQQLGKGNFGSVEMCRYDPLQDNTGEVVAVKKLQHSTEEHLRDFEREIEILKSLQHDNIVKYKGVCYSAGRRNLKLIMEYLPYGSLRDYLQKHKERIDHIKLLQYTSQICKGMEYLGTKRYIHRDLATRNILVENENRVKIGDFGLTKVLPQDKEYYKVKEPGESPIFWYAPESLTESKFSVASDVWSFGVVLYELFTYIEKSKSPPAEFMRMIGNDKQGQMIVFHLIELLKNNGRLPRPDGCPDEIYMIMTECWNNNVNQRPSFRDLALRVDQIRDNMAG
Chain of TYK2 (P29597 whole entry): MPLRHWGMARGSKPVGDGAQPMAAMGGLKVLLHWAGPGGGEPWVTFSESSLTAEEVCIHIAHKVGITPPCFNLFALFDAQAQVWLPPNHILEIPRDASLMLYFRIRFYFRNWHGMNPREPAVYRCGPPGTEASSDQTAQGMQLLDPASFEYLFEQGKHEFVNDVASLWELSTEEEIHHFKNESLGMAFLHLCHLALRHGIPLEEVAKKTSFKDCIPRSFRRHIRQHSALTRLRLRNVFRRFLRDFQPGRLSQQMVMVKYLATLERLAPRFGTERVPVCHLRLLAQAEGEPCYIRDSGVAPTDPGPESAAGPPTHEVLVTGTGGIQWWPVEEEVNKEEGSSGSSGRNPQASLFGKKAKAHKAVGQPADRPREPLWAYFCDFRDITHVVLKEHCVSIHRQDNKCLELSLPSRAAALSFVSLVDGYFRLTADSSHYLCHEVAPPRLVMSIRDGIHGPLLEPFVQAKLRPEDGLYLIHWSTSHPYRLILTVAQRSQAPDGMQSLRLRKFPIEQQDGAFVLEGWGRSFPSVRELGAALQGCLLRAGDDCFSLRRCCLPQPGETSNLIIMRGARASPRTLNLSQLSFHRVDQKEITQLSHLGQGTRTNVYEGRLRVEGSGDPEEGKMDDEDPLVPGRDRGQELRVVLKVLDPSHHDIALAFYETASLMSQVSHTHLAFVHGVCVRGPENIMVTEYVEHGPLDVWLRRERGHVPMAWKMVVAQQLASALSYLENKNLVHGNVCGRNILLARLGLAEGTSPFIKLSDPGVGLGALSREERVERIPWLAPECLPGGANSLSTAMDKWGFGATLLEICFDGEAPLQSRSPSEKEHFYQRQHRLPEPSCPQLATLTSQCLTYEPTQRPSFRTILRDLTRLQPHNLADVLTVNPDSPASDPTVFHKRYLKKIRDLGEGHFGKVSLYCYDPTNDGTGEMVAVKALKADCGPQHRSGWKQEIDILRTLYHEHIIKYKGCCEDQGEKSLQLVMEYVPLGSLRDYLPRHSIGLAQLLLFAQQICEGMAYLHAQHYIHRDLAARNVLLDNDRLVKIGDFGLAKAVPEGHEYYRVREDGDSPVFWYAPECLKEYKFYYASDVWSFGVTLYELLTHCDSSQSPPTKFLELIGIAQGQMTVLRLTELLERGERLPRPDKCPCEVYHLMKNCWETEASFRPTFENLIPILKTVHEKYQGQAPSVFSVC

As for `O=C1NCCCCOCc2cc(ccc2N2CCSCC2)Nc2nccc(n2)-c2ccc1cc2[N+](=O)[O-]` [Example 65, 1^2-nitro-4^4-thiomorpholin-6-oxa-3,11-diaza-2(4,2)-pyrimidina-1(1,4),4(1,3)-dibenzenacyclododecaphan-12-one], the IC50 at JAK3, on JAK1, at TYK2 and against JAK2 was 1 to 10 µM each time.

For `Nc1cc2ccc1-c1ccnc(n1)Nc1ccc(N3CCSCC3)c(c1)COCCCCNC2=O` [Example 66, 1^2-amino-4-thiomorpholin-6-oxa-3,11-diaza-2(4,2)-pyrimidina-1(1,4),4(1,3)-dibenzenacyclo-dodecaphan-12-one], the IC50 fell in the range of 0.011 to 0.1 µM on JAK3, 0.101 to 1 µM at JAK1, 0.101 to 1 µM on TYK2 and 0.011 to 0.1 µM against JAK2.

Regarding `CC(C)Oc1ccc2cc1COCCCCNC(=O)c1ccc(c(N)c1)-c1ccnc(n1)N2` [Example 67, 1^2-amino-4^4-isopropoxy-6-oxa-3,11-diaza-2(4,2)-pyrimidina-1(1,4),4(1,3)-dibenzenacyclododecaphan-12-one], the IC50 on JAK3 was < 0.01 µM; on JAK1, 0.101 to 1 µM; on TYK2, 1 to 10 µM; on JAK2 it was 0.101 to 1 µM.

Turning to `O=C1NCCCCOCc2cc(ccc2F)Nc2nccc(n2)-c2ccc1cc2[N+](=O)[O-]` [Example 68, 4^4-fluoro-1^2-nitro-6-oxa-3,11-diaza-2(4,2)-pyrimidina-1(1,4),4(1,3)-di-benzenacyclododecaphan-12-one], the IC50 on JAK3 was 0.101 to 1 µM; at JAK1, 1 to 10 µM; on TYK2, > 10 µM; at JAK2, 1 to 10 µM.

Turning to `Nc1cc2ccc1-c1ccnc(n1)Nc1ccc(F)c(c1)COCCCCNC2=O` [Example 69, 1^2-amino-4^4-fluoro-6-oxa-3,11-diaza-2(4,2)-pyrimidina-1(1,4),4(1,3)-di-benzenacyclododecaphan-12-one], the IC50 lay in the range of 0.011 to 0.1 µM at JAK3, 1 to 10 µM on JAK1, 1 to 10 µM at TYK2 and 0.101 to 1 µM on JAK2.

With `CN1CCN(c2ccc3cc2COCCCCNC(=O)c2ccc(c(N)c2)-c2ccnc(n2)N3)CC1` [Example 70, 1^2-amino-4^4-(4-methylpiperazin-1-yl)-6-oxa-3,11-diaza-2(4,2)-pyrimidi-na-1(1,4),4(1,3)-dibenzenacyclo-dodecaphan-12-one], the IC50 on JAK3 lay in the range of 0.011 to 0.1 µM; at JAK1 it was 1 to 10 µM; on TYK2, 1 to 10 µM; at JAK2 it was 0.101 to 1 µM.

Regarding `O=C1NCCCCOCc2cc(ccc2OC2CCC2)Nc2nccc(n2)-c2ccc1cc2[N+](=O)[O-]` [Example 71, 4^4-cyclobutoxy-1^2-nitro-6-oxa-3,11-diaza-2(4,2)-pyrimidina-1(1,4),4(1,3)-dibenzenacyclododecaphan-12-one], the IC50 on JAK3 was 1 to 10 µM; at JAK1, > 10 µM; on TYK2 it was > 10 µM; at JAK2, > 10 µM.

For `O=C1NCCCCOCc2cc(ccc2OC2COC2)Nc2nccc(n2)-c2ccc1cc2[N+](=O)[O-]` [Example 72, 1^2-nitro-4^4-(oxetan-3-oxy)-6-oxa-3,11-diaza-2(4,2)-pyrimidina-1(1,4),4(1,3)-dibenzenacyclododecaphan-12-one], the IC50 at JAK3 is 0.101 to 1 µM; on JAK1, 1 to 10 µM; at TYK2 it was > 10 µM; on JAK2 it was 1 to 10 µM.

Regarding `O=C1NCCCCOCc2cc(ccc2OC2CC2)Nc2nccc(n2)-c2ccc1cc2[N+](=O)[O-]` [Example 73, 4^4-cyclopropoxy-1^2-nitro-6-oxa-3,11-diaza-2(4,2)-pyrimidina-1(1,4),4(1,3)-dibenzenacyclododecaphan-12-one], the IC50 was 0.101 to 1 µM at JAK3, 1 to 10 µM on JAK1, > 10 µM on TYK2 and 1 to 10 µM against JAK2.
